Patent US12318365B2, “Inhibition of dipeptide repeat proteins” (ALS Therapy Development Institute, priority 2019, dated 2025)
No end group written: not given here.

Tests used:
NSC-34 cells [1] = assay: Caspase-3 assay (apoptotic activity) in NSC-34 cells; format: cell-based; settings: DRP 0.01-3 μM, 24 h; compared to DMSO-treated controls
Source text: Caspase-3/CPP32 Assay: The caspase-3 assay is a fluorometric assay that measures apoptotic cell death. Apoptosis is a form of “programmed” cell death, in which a certain family of proteins inside the cell triggers a cascade of chemical reactions that result in the cell killing itself. One family of proteins involved in this process is the caspase protein family. Of the caspase proteins, caspase-2, 8, 9, and 10 are known as “initiators,” those that trigger the death cascade, and caspase-3, 6, and 7 are known as “executioners,” which carry out the actual killing of the cell. In a caspase-3 assay, cells treated with test compounds are lysed, and a substrate known as DEVD-AFC is added to the lysate. If active caspase-3 enzyme is present in the lysate, it will cleave AFC from the DEVD-AFC substrate, resulting in a fluorescent signal that can be quantified using a fluorescence microtiter plate reader. Thus, the apoptotic activity of cells treated with test compounds can be quantified. Greater fluorescence readings correspond to more apoptotic cell death.
Cells were plated in culture medium in 2 96-well plates at a density of 3.7×10^4 cells per well, and incubated overnight at 37° C., 5% CO2. The following day, immediately prior to addition of test compounds, existing culture medium was removed and replaced with staggered volumes of culture medium as in Example 1. A 10 mM stock of MS023 was thawed to room temperature and diluted as in Example 1. A 10 mM stock of GR15 (SEQ ID NO: 1) and a 10 mM stock of PR15 (SEQ ID NO: 2) were equilibrated to room temperature and diluted in warm culture medium to achieve a final concentration of 300 nM in wells.
The following conditions were plated in triplicate. Samples were surrounded by border wells on the outside of the plate filled with sterile Phosphate-buffered saline to prevent evaporation of volume in experimental wells during incubation; • Background (Culture medium only) • Untreated/“Cells Only” (Cells in culture medium) • DMSO Control (Cells treated only with the amount of DMSO that GR- and PR-treated cells were exposed to) • GR Only (Cells treated only with 300 nM GR15) (SEQ ID NO: 1) • Cells treated with […] GR15 (SEQ ID NO: 1) and one of the following doses of MS023: 60 μM, 30 μM, 10 μM, 3 μM, 1 μM. • PR Only (Cells treated only with 300 nM PR15) (SEQ ID NO: 2) • Cells treated with 300 nM PR15 (SEQ ID NO: 2) and one of the following doses of MS023: 60 μM, 30 μM, 10 μM, 3 μM, 1 μM. • Cells treated with only one of the following doses of MS023: 60 μM, 30 μM, 10 μM, 3 μM, 1 μM. • Positive controls (Cells treated with either 5 or 16 μM PAC-1 Caspase-3 activator)
Plates were incubated for 24 h at 37° C., 5% CO2. Cells were tested and data were analyzed using the procedure detailed in Caspase-3 assay kit instructions.
Cells were plated in culture medium in 2 96-well plates at a density of 3.7×10^4 cells per well, and incubated overnight at 37° C., 5% CO2. The following day, immediately prior to addition of test compounds, existing culture medium was removed and replaced with staggered volumes of culture medium as in Example 1. A 10 mM stock of MS023 was thawed to room temperature and diluted in warm culture medium to achieve final concentrations of 3, 1, 0.3, 0.1, 0.03, and 0.01 μM in plate. A 10 mM stock of GR15 (SEQ ID NO: 1) and a 10 mM stock of PR15 (SEQ ID NO: 2) were equilibrated to room temperature and diluted in warm culture medium to achieve a final concentration of 3 μM in wells.
The following conditions were plated in triplicate. […]

NSC-34 cells [2] = assay: BrdU ELISA (proliferation) in NSC-34 cells; format: cell-based, Mouse; settings: DRP 0.01-3 μM, 24 h; compared to DMSO-treated controls
Procedure: BrdU ELISA: The BrdU ELISA is an ELISA detecting cell proliferation activity. BrdU is a pyrimidine analog that, when inside the cell, can be incorporated instead of thymidine into newly synthesized strands of DNA. Just as is indicated by thymidine incorporation into DNA, BrdU incorporation into cell DNA indicates DNA synthesis activity, which is required for cell proliferation. In the BrdU ELISA, cells are treated with test compounds as well as BrdU reagent, and then incubated for 24 hours before testing. During testing, an anti-BrdU antibody detects the incorporation of BrdU into cell DNA that occurred over the 24-hour period, as a surrogate for cell proliferation activity. This anti-BrdU antibody is then labelled with a secondary antibody tagged with a colored substrate, which can be quantified spectrophotometrically. Greater absorbance readings correspond to more cell proliferation activity.
Cells were plated in culture medium in 2 96-well plates at a density of 3.7×10^4 cells per well, and incubated overnight at 37° C., 5% CO2.
The following conditions were plated in triplicate.
Plates were incubated for 24 h at 37° C., 5% CO2. Cells were tested and data were analyzed using the procedure detailed in BrdU ELISA kit instructions.
Cells were plated in culture medium in 2 96-well plates at a density of 5×10^4 cells per well, and incubated overnight at 37° C., 5% CO2. […] 10 μL of each concentration would be added to 100 μL base media in plate to achieve final concentrations of 3, 1, 0.3, 0.1, 0.03, and 0.01 μM DRP.
The following conditions were plated in triplicate. Samples were surrounded by border wells on the outside of the plate filled with sterile Phosphate-buffered saline to prevent evaporation of volume in experimental wells during incubation; • Culture medium only • Background (Cells only in culture medium, without BrdU reagent) • Untreated (Cells only in culture medium, with BrdU reagent) • DMSO Controls (Cells treated with BrdU reagent and the amount of DMSO that DRP-treated cells were exposed to at each concentration) • i. The DMSO controls tested were as follows, corresponding to DRP doses starting at the highest (3 μM to the lowest 0.01 μM), and were diluted in culture medium: • 1. 0.03% DMSO • 2. 0.01% DMSO • 3. 0.003% DMSO • 4. 0.001% DMSO • 5. 0.0003% DMSO • 6.

Sequence | DRP-induced apoptotic activity (NSC-34 cells [1]) | effect of DRP on proliferation activity (NSC-34 cells [2])
GPGPGPGPGPGPGPGPGPGPGPGPGPGPGP [GP15] | producing less robust levels of apoptotic activity | did not significantly impact proliferation activity
PAPAPAPAPAPAPAPAPAPAPAPAPAPAPA [PA15] | producing less robust levels of apoptotic activity | did not significantly impact proliferation activity
